Measured values published in patent publication US7034035B2, “Fungicidal mono-, bi-, and tri-cycloheteroalkyl amides and their compositions, methods of use and preparation” (priority 1999, dated 2006).

Tests used:
[1] = test system: Rhizoctonia solani (RHIZSO); assay: microbe, parasite or virus in culture; type: cell-based
[2] = test system: Ustilago maydis (USTIMA); assay: microbe, parasite or virus in culture; type: cell-based
[3] = test system: Leptosphaeria nodorum—LEPTNO; assay: Glume Blotch of Wheat, in vivo whole plant, 24 Hour Protectant; settings: Leptosphaeria, 24 h, wheat (cultivar Yuma), sprayed at 100 ppm, inoculated after 24 hours; control of fungal infection vs untreated plants; read-out: LEPTNO in vivo 1 Day Protectant

Structure (SMILES) | RHIZSO in vitro Growth Inhibition [1] | USTIMA in vitro Growth Inhibition [2] | pest or weed control at 100 ppm [3]
COc1ccnc(C(=O)N[C@H]2C(O)[C@@H]3CC[C@H]2[C@@H]2CCCC[C@@H]23)c1O (stereo partly drawn) [Compound 293] | − (key: +: at least 80% growth inhibition; −: less than 80% growth inhibition) | − (key: +: at least 80% growth inhibition; −: less than 80% growth inhibition) | 
COc1ccnc(C(=O)N[C@H]2CC3CC2C[C@@H]3COCc2cccc(C(F)(F)F)c2)c1O (stereo partly drawn) [Compound 296] | + (key: +: at least 80% growth inhibition; −: less than 80% growth inhibition) | − (key: +: at least 80% growth inhibition; −: less than 80% growth inhibition) | 
COc1ccnc(C(=O)N[C@@H]2CC3CC2C[C@@H]3COCc2cccc(C(F)(F)F)c2)c1O (stereo partly drawn) [Compound 297] | + (key: +: at least 80% growth inhibition; −: less than 80% growth inhibition) | − (key: +: at least 80% growth inhibition; −: less than 80% growth inhibition) | 
COc1ccnc(C(=O)N[C@@H]2CC3CC2[C@@H](c2ccccc2)[C@@H]3C(=O)OC(C)C)c1O (stereo partly drawn) [Compound 300] | + (key: +: at least 80% growth inhibition; −: less than 80% growth inhibition) | − (key: +: at least 80% growth inhibition; −: less than 80% growth inhibition) | 
COc1ccnc(C(=O)N[C@@H]2CC3CC2[C@@H](C(=O)OCCc2ccccc2)[C@H]3C(=O)OCC(C)C)c1O (stereo partly drawn) [Compound 301] | + (key: +: at least 80% growth inhibition; −: less than 80% growth inhibition) | − (key: +: at least 80% growth inhibition; −: less than 80% growth inhibition) | 
COc1ccnc(C(=O)N[C@@H]2CC3CC2[C@H]2COC[C@@H]32)c1O (stereo partly drawn) [Compound 302] | − (key: +: at least 80% growth inhibition; −: less than 80% growth inhibition) | − (key: +: at least 80% growth inhibition; −: less than 80% growth inhibition) | 
COc1ccnc(C(=O)N[C@@H]2CC3CC2C2C(=O)N(CC(C)C)C(=O)C32)c1O (stereo partly drawn) [Compound 303] | − (key: +: at least 80% growth inhibition; −: less than 80% growth inhibition) | − (key: +: at least 80% growth inhibition; −: less than 80% growth inhibition) | 
COc1ccnc(C(=O)NC2CCN(Cc3ccc(C)cc3)CC2)c1O [Compound 306] | − (key: +: at least 80% growth inhibition; −: less than 80% growth inhibition) | − (key: +: at least 80% growth inhibition; −: less than 80% growth inhibition) | 
COc1ccnc(C(=O)NC2CCN(C(=O)CCc3ccccc3)CC2)c1O [Compound 309] | − (key: +: at least 80% growth inhibition; −: less than 80% growth inhibition) | − (key: +: at least 80% growth inhibition; −: less than 80% growth inhibition) | 
COc1ccnc(C(=O)NC2COC(C)C2)c1O (stereo not drawn) [Compound 310] | − (key: +: at least 80% growth inhibition; −: less than 80% growth inhibition) | − (key: +: at least 80% growth inhibition; −: less than 80% growth inhibition) | 
COc1ccnc(C(=O)NC2C[C@H](C)O[C@@](C)(Cc3ccccc3)C2)c1O (stereo partly drawn) [Compound 312] | − (key: +: at least 80% growth inhibition; −: less than 80% growth inhibition) | − (key: +: at least 80% growth inhibition; −: less than 80% growth inhibition) | 
COc1ccnc(C(=O)NC2C[C@H](C)O[C@](C)(Cc3ccccc3)C2)c1O (stereo partly drawn) [Compound 313] | − (key: +: at least 80% growth inhibition; −: less than 80% growth inhibition) | − (key: +: at least 80% growth inhibition; −: less than 80% growth inhibition) | 
CCC1(C)OCC(NC(=O)c2nccc(OC)c2O)CO1 (stereo not drawn) [Compound 314] | − (key: +: at least 80% growth inhibition; −: less than 80% growth inhibition) | − (key: +: at least 80% growth inhibition; −: less than 80% growth inhibition) | 
COc1ccnc(C(=O)NC2COC3(CC(C)(C)CC(C)(C)C3)OC2)c1O [Compound 315] | − (key: +: at least 80% growth inhibition; −: less than 80% growth inhibition) | − (key: +: at least 80% growth inhibition; −: less than 80% growth inhibition) | 
COc1ccnc(C(=O)N[C@H]2CO[C@@](C)(C(C)CC3=C(C)CCCC3(C)C)OC2)c1O (stereo partly drawn) [Compound 318] | + (key: +: at least 80% growth inhibition; −: less than 80% growth inhibition) | − (key: +: at least 80% growth inhibition; −: less than 80% growth inhibition) | 
COc1ccnc(C(=O)NC2CC3OC2C(C)C(OC(=O)C(C)C)C3C)c1O (stereo not drawn) [Compound 320] | − (key: +: at least 80% growth inhibition; −: less than 80% growth inhibition) | − (key: +: at least 80% growth inhibition; −: less than 80% growth inhibition) | 
COc1ccnc(C(=O)N[C@H]2CC3OC2[C@H](C)[C@@H](OCc2ccccc2)[C@H]3C)c1O (stereo partly drawn) [Compound 321] | − (key: +: at least 80% growth inhibition; −: less than 80% growth inhibition) | − (key: +: at least 80% growth inhibition; −: less than 80% growth inhibition) | 
COCCCc1ccc2c(c1)OC(C)C(NC(=O)c1nccc(OC)c1O)C2=O (stereo not drawn) [Compound 322] | + (key: +: at least 80% growth inhibition; −: less than 80% growth inhibition) | − (key: +: at least 80% growth inhibition; −: less than 80% growth inhibition) | 

Structure (SMILES) | RHIZSO in vitro Growth Inhibition [1] | USTIMA in vitro Growth Inhibition [2] | pest or weed control at 100 ppm [3]
COc1ccnc(C(=O)NC2C3CSC2CN(Cc2ccccc2)C3)c1O (stereo not drawn) [Compound 325] | − (key: +: at least 80% growth inhibition; −: less than 80% growth inhibition) | − (key: +: at least 80% growth inhibition; −: less than 80% growth inhibition) | 
COc1ccnc(C(=O)NC2O[C@H](CO)[C@H]3OC(C)(C)O[C@@H]23)c1O (stereo partly drawn) [Compound 329] | − (key: +: at least 80% growth inhibition; −: less than 80% growth inhibition) | − (key: +: at least 80% growth inhibition; −: less than 80% growth inhibition) | 
COc1ccnc(C(=O)N[C@@H]2OC[C@@H](OC(C)=O)[C@H](OC(C)=O)[C@H]2OC(C)=O)c1O [Compound 330] | − (key: +: at least 80% growth inhibition; −: less than 80% growth inhibition) | − (key: +: at least 80% growth inhibition; −: less than 80% growth inhibition) | 
CCCO[C@@H]1[C@@H](OCCC)[C@H](OCCC)CO[C@H]1NC(=O)c1nccc(OC)c1O [Compound 331] | − (key: +: at least 80% growth inhibition; −: less than 80% growth inhibition) | − (key: +: at least 80% growth inhibition; −: less than 80% growth inhibition) | 
COc1ccnc(C(=O)N[C@@H]2OC[C@@H](OCc3ccccc3)[C@H](OCc3ccccc3)[C@H]2OCc2ccccc2)c1O [Compound 332] | − (key: +: at least 80% growth inhibition; −: less than 80% growth inhibition) | − (key: +: at least 80% growth inhibition; −: less than 80% growth inhibition) | 
COc1ccnc(C(=O)N[C@H]2O[C@@H](C)[C@@H](OC(C)=O)[C@@H](OC(C)=O)[C@@H]2OC(C)=O)c1O [Compound 333] | − (key: +: at least 80% growth inhibition; −: less than 80% growth inhibition) | − (key: +: at least 80% growth inhibition; −: less than 80% growth inhibition) | 
COc1ccnc(C(=O)N[C@H]2[C@@H](OC(C)=O)O[C@H](COC(C)=O)[C@@H](OC(C)=O)[C@@H]2OC(C)=O)c1O [Compound 335] | − (key: +: at least 80% growth inhibition; −: less than 80% growth inhibition) | − (key: +: at least 80% growth inhibition; −: less than 80% growth inhibition) | 
COC(=O)C(CO)NC(=O)c1nccc(OC)c1O (stereo not drawn) [Compound 340] | − (key: +: at least 80% growth inhibition; −: less than 80% growth inhibition) | − (key: +: at least 80% growth inhibition; −: less than 80% growth inhibition) | 
COc1ccnc(C(=O)N[C@@H](CO)C(=O)O[C@@H](C)[C@H](OC(=O)C(C)C)[C@@H](Cc2ccccc2)C(=O)O)c1O [Compound 341] | − (key: +: at least 80% growth inhibition; −: less than 80% growth inhibition) | − (key: +: at least 80% growth inhibition; −: less than 80% growth inhibition) | 
COc1ccnc(C(=O)NC(C(=O)OCC(C)C)C(C)OC(=O)C(C)Cc2ccccc2)c1O (stereo not drawn) [Compound 360] |  |  | 75 to 100%
COc1ccnc(C(=O)N[C@H]2COC(=O)[C@H](Cc3ccccc3)C[C@H](C)OC2=O)c1O [Compound 382] |  |  | 75 to 100%
COc1ccnc(C(=O)N[C@H]2COC(=O)[C@H](Cc3ccccc3)[C@@H](OC(C)=O)[C@H](C)OC2=O)c1O [Compound 385] |  |  | 75 to 100%
C=C(C)C(=O)O[C@H]1[C@H](C)OC(=O)[C@@H](NC(=O)c2nccc(OC)c2O)COC(=O)[C@@H]1Cc1ccccc1 [Compound 386] |  |  | 75 to 100%
COc1ccnc(C(=O)N[C@H]2COC(=O)[C@H](Cc3ccccc3)[C@@H](OC(=O)C3CC3)[C@H](C)OC2=O)c1O [Compound 387] |  |  | 75 to 100%
COc1ccnc(C(=O)N[C@H]2COC(=O)[C@H](Cc3ccccc3)[C@@H](OC(=O)C(C)(C)C)[C@H](C)OC2=O)c1O [Compound 388] |  |  | 75 to 100%
COc1ccnc(C(=O)N[C@H]2COC(=O)[C@H](Cc3ccccc3)[C@@H](OC(=O)C3CCCC3)[C@H](C)OC2=O)c1O [Compound 391] |  |  | 75 to 100%
COc1ccnc(C(=O)N[C@H]2COC(=O)[C@H](Cc3ccccc3)[C@@H](OC(=O)C3CCCCC3)[C@H](C)OC2=O)c1O [Compound 392] |  |  | 75 to 100%
COc1ccnc(C(=O)N[C@H]2COC(=O)[C@H](Cc3ccccc3)[C@@H](OC(=O)c3ccccc3)[C@H](C)OC2=O)c1O [Compound 394] |  |  | 75 to 100%
